Measured values as given in US20060217400A1, “Triazolopyrimidines, methods for the production thereof, use thereof for controlling harmful fungi, and substances containing said triazolopyrimidines” (priority 2002, published 2006).

Test system: Alternaria solani
Test: Activity against early blight of tomato caused by Alternaria solani
Format: in vivo
Details: 250 ppm, spray on tomato leaves, rated after 5 days; untreated control 80% infected
Method: The active compounds were formulated separately as a stock solution comprising 0.25% by weight of active compound in acetone or DMSO. 1% by weight of the emulsifier Uniperol® EL (wetting agent having emulsifying and dispersing action based on ethoxylated alkylphenols) was added to this solution. The stock solutions of the active compounds were diluted with water to the stated concentration. Leaves of potted plants of the cultivar “Golden Princess” were sprayed to runoff point with an aqueous suspension having the concentration of active compound stated below. The next day, the leaves were infected with an aqueous spore suspension of Alternaria solani in 2% biomalt solution having a density of 0.17×10^6 spore/ml. The plants were then placed in a water-vapor saturated chamber at temperatures between 20 and 22° C. After 5 days, the blight on the untreated, but infected control plants had developed to such an extent that the infection could be determined visually in %.

Compound: CCC(C)Cc1c(-c2c(F)cc(F)cc2F)c(C)nc2nc(OC)nn12 (stereo not shown) [I-11, 2-Methoxy-5-methyl-6-(2,4,6-trifluorophenyl)-7-(2-methylbutyl)-1,2,4-triazolo[1,5a]pyrimidine]
- infection of the leaves, determined visually: < 10%
